The assay has as its system microorganisms. The assay can be described thus: Targeting peptide binding to target microorganisms (Tables 3, 10, 12). The note with it: for Target(s): microorganism(s) the targeting peptide binds, preferably 1x PBS.
Where [1] appears, read: binding in aqueous buffers that varied with peptide solubility.
The mark [2] stands for this setting: binding in aqueous buffers varied with peptide solubility.

“Also recorded” adds a separate entry of the source. Square brackets hold non-standard residues; d marks the D form. Ends that are not written are not given here. dOrn = NCCC[C@@H](N)C(=O)O

With “1T-272 (QLAPIDKQLKAVKKIAFYESESTAAKAVTVA; Peptide with targeting and/or antimicrobial activity)”, the “Target(s)” value under setting [1] was “F. nucleatum; also recorded: S. mutans; also recorded: S. oralis; also recorded: S. sanguinis”. On to “1T-273 (YNEPNYKWLESYKIYKQRCEDRTGMYYTEET; Peptide with targeting and/or antimicrobial activity)”, for which the “Target(s)” value under setting [1] is recorded as “F. nucleatum; also recorded: P. gingivalis; also recorded: T. denticola; also recorded: S. mitis; also recorded: S. mutans; also recorded: S. oralis”. Same read-out and setting: with “1T-274 (ETTTEINAIKLHRIKQRSPQGTRRVN; Peptide with targeting and/or antimicrobial activity)” the entry was “F. nucleatum; also recorded: S. mutans; also recorded: S. oralis; also recorded: S. sanguinis”; with “1T-282 (ISLVFPAYT; Peptide with targeting and/or antimicrobial activity)”, “F. nucleatum; also recorded: P. gingivalis; also recorded: S. gordonii; also recorded: S. mitis; also recorded: S. mutans; also recorded: S. oralis; also recorded: S. salivarious; also recorded: S. sanguinis”; with “1T-286 (LGFFNNKADLVKADTERDNRMSSLKIKDL; Peptide with targeting and/or antimicrobial activity)”, “S. sanguinis”.

As to “1T-287 (KGYPLPFQYRLNNH; Peptide with targeting and/or antimicrobial activity)”, the “Target(s)” value under setting [1] is “P. gingivalis; also recorded: T. denticola; also recorded: S. gordonii; also recorded: S. mitis; also recorded: S. mutans; also recorded: S. oralis; also recorded: S. salivarious; also recorded: S. sanguinis”. Same read-out and setting: the entry for “1T-288 (RWVGGEPSADIYLSAKDTKT; Peptide with targeting and/or antimicrobial activity)” is “F. nucleatum; also recorded: S. gordonii; also recorded: S. salivarious; also recorded: S. sanguinis”; for “1T-289 (EPSADIYLSAKDTKT; Peptide with targeting and/or antimicrobial activity)” it is “F. nucleatum; also recorded: P. gingivalis; also recorded: S. gordonii; also recorded: S. mitis; also recorded: S. mutans; also recorded: S. oralis; also recorded: S. sanguinis”; for “1T-291 (DMKIIKLYIKILSFLFIKYCNKKLNSVKLKA; Peptide with targeting and/or antimicrobial activity)” it is “A. naeslundii; also recorded: F. nucleatum; also recorded: P. gingivalis; also recorded: T. denticola; also recorded: S. mitis; also recorded: S. mutans; also recorded: S. oralis”. Same read-out and setting: the entry for “1T-294 (YDKIADGVFKIGKRGVL; Peptide with targeting and/or antimicrobial activity)” is “T. denticola”; for “1T-295 (KYKLKKIIL; Peptide with targeting and/or antimicrobial activity)” it is “S. mitis; also recorded: S. salivarious; also recorded: S. sanguinis”. Same read-out and setting: with “1T-297 (RSLRLNNALTKLPKLWYNRIKEAFYAYNDYDK; Peptide with targeting and/or antimicrobial activity)” the entry was “A. naeslundii; also recorded: F. nucleatum; also recorded: T. denticola; also recorded: S. mitis; also recorded: S. mutans; also recorded: S. oralis”; with “1T-301 (SKLPRVLDASLKL; Peptide with targeting and/or antimicrobial activity)”, “F. nucleatum; also recorded: S. gordonii; also recorded: S. sanguinis”; with “1T-304 (STAGEASRRTASEASRRTAAKLRG; Peptide with targeting and/or antimicrobial activity)”, “P. gingivalis”. Regarding AIEGVIKKGACFKLLRHEMF [PF-167], the “Target(s)” value under setting [2] is “S. epidermidis and E. coli and C. albicans and MRSA and C. jeikeium and C. jejuni”.

“CHA0 (D[dOrn]KTAA[dOrn]K; not fully specified (bridges))”: under setting [1], the “Target(s)” value is reported as “P. fluorescens”.

Turning to DAANEA-GGG [BL-1], the bacterial binding entry (data not shown) was “no bacterial binding”. “HIKETR (Peptide with targeting and/or antimicrobial activity) [PF-222]”: the “Target(s)” value under setting [2] is given as “S. epidermidis”. The same measure, in the same setting: with “MKKLVAALAVIVILTGCVYDPVNYDKIHDQEFQDHLRQNG [PF-252]” the entry was “S. mutans”. The same measure, in the same setting: with MLTSRKKRLKKIVEEQNKKDESI [PF-336] the entry was “S. mutans; also recorded: E. coli”; with PEIIKIVSGLL [PF-758], “S. epidermidis and M. luteus and E. coli and MRSA and S. pneumoniae and E. faecalis and C. jeikeium”. In the case of “PF670 (chain 1 TVIVAPMHSGV; chain 2 TVIVAPMHSGV; Peptide with targeting and/or antimicrobial activity)”, under setting [2], the “Target(s)” value is “Mycobacteria spp”. Regarding “PF-014 (HPTDNKHN; Peptide with targeting and/or antimicrobial activity)”, under setting [1], the “Target(s)” value is “E. coli; also recorded: C. jeikeium”. On the same count and under the same terms, with “PF-016 (RKQYDDLSFNFLY; Peptide with targeting and/or antimicrobial activity)” the entry was “S. epidermidis; also recorded: E. faecalis; also recorded: C. jeikeium”; with “PF-018 (YYKTYFKEV; Peptide with targeting and/or antimicrobial activity)”, “E. coli; also recorded: C. jeikeium”; with “PF-038 (MAYKDEGKETKFAVKGYKD; Peptide with targeting and/or antimicrobial activity)”, “M. luteus”. The same measure, in the same setting: the entry for “PF-039 (MLEEKNKSL; Peptide with targeting and/or antimicrobial activity)” is “P. mirabilis; also recorded: C. jeikeium”; for “PF-044 (KLKKYIHKPD; Peptide with targeting and/or antimicrobial activity)” it is “S. epidermidis and M. luteus and MRSA and C. jeikeium”. For the substance “PF-047 (NQEPSLQQDKEQKDNKG; Peptide with targeting and/or antimicrobial activity)”, under setting [1], the “Target(s)” value is given as “S. mutans”. For “PF-050 (SYYLKRREEKGK; Peptide with targeting and/or antimicrobial activity)”, the “Target(s)” value under setting [1] was “S. epidermidis; also recorded: M. luteus; also recorded: E. coli; also recorded: C. jeikeium”. Still for that read-out and setting: the entry for “PF-054 (VSISRFIGGGHVFNGNNKRNL; Peptide with targeting and/or antimicrobial activity)” is “S. epidermidis; also recorded: E. coli”; for “PF-055 (GHVFNGNNKRNL; Peptide with targeting and/or antimicrobial activity)” it is “S. mutans”; for “PF-060 (HSSHL; Peptide with targeting and/or antimicrobial activity)” it is “E. coli; also recorded: C. albicans; also recorded: C. jeikeium”. Still for that read-out and setting: with “PF-062 (MKKKRINNDILGRMIYSSSIDKRNLYNLKYYE; Peptide with targeting and/or antimicrobial activity)” the entry was “S. epidermidis and M. luteus and E. coli and P. aeruginosa and MRSA and S. pneumoniae and E. faecalis and C. jeikeium”.

“PF-097 (QPTQGEQGTRPRRPTPMRGLLI; Peptide with targeting and/or antimicrobial activity)”: the “Target(s)” value under setting [2] is “C. jeikeium”. As for “PF-101 (DPVPERQEQACACHRTAKPGK; Peptide with targeting and/or antimicrobial activity)”, under setting [2], the “Target(s)” value is “S. mutans”.

For “PF-104 (ERTAVNDLWI; Peptide with targeting and/or antimicrobial activity)”, under setting [2], the “Target(s)” value is “MRSA and C. jeikeium”.

As for “PF-130 (LQRSDEESMPRRHEKYS; Peptide with targeting and/or antimicrobial activity)”, under setting [2], the “Target(s)” value is recorded as “E. faecalis; also recorded: C. jeikeium; also recorded: C. jejuni”. Same read-out and setting: with “PF-131 (RRAAARTKGNRR; Peptide with targeting and/or antimicrobial activity)” the entry was “S. epidermidis and E. coli and MRSA and C. jeikeium”; with “PF-132 (RPGDGAAEQGRSR; Peptide with targeting and/or antimicrobial activity)”, “S. epidermidis; also recorded: C. jeikeium”. Take “PF-134 (GKAMKRQDCSAL; Peptide with targeting and/or antimicrobial activity)”: under setting [2], the “Target(s)” value is on record as “S. epidermidis; also recorded: C. jeikeium”. On the same count and under the same terms, with “PF-138 (AVHHSLLFR; Peptide with targeting and/or antimicrobial activity)” the entry was “S. epidermidis and M. luteus and P. mirabilis and E. coli and C. albicans and MRSA and C. jeikeium and C. jejuni”.

“PF-141 (VVRRFQGM; Peptide with targeting and/or antimicrobial activity)”: the “Target(s)” value under setting [2] was “S. epidermidis and M. luteus and C. albicans and MRSA and C. jeikeium”. With “PF-142 (GIDRGCQAAR; Peptide with targeting and/or antimicrobial activity)”, the “Target(s)” value under setting [2] is reported as “S. mutans”.

For “PF-146 (GCGKRRIITKSASRDTR; Peptide with targeting and/or antimicrobial activity)”, under setting [2], the “Target(s)” value is “S. epidermidis and M. luteus and P. aeruginosa and C. albicans and MRSA and C. jeikeium”. Consider “PF-147 (RRPRRRRSGHGQSASAA; Peptide with targeting and/or antimicrobial activity)”, for which the “Target(s)” value under setting [2] is “S. epidermidis and M. luteus and MRSA”. Same read-out and setting: the entry for “PF-150 (EIQAKGTG; Peptide with targeting and/or antimicrobial activity)” is “S. epidermidis and MRSA”; for “PF-151 (EEYPARVPLSGEDVTEARRH; Peptide with targeting and/or antimicrobial activity)” it is “S. epidermidis and MRSA and E. faecalis and C. jeikeium”.

Turning to “PF-152 (VGYFIWKDSHSRKG; Peptide with targeting and/or antimicrobial activity)”, the “Target(s)” value under setting [2] is “S. epidermidis and C. albicans and MRSA and E. faecalis and C. jeikeium”. On the same count and under the same terms, the entry for “PF-154 (GIKKSKHPSTDDYVVKTTIDSL; Peptide with targeting and/or antimicrobial activity)” is “S. mutans”.

Source of the values: patent publication US20110039763A1, “TARGETED ANTIMICROBIAL MOIETIES” (C3 JIAN, INC., priority 2009, published 2011).
